Source: patent publication US20250326748A1, “COMPOUNDS AND METHODS FOR MODULATING SPLICING” (REMIX THERAPEUTICS INC., priority 2022, published 2025)
Structures can show the parent of a compound that is named as a salt. Where two headings read alike, the source gives them in different places.

Legend:
Assay type in all cases: cell-based, human
HiBiT-tagged HTT protein = experiment: HiBiT protein abundance assay, HTT (K562 HiBiT knock-in); details: HiBiT knock-in cells, 24 hours
How it was run: (§1)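 Endogenously HiBiT-tagged K562 knock-in lines treated 24 h at 37 °C with 10-point 3-fold dilutions (top 10 μM final, DMSO ≤0.25%) in IMDM+1% FBS. Lytic Nano-Glo luminescence normalized to DMSO and unmodified K562 controls; four-parameter fit gives 50%-abundance concentration (IC50).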

HiBiT-tagged MYB protein = experiment: HiBiT protein abundance assay, MYB (K562 HiBiT knock-in); details: HiBiT knock-in cells, 24 hours
How it was run: as §1

Target C mRNA = experiment: Splicing RT-qPCR panel, Target C canonical junction (CJ) mRNA; details: read-out: Target C CJ (decrease in CJ mRNA levels, IC50)
How it was run: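 A673 cells (DMEM, 10% FBS) or K562 cells (IMDM, 10% FBS) treated 24 h at 37 °C with an 11-point 3-fold dilution, top 10 uM, DMSO ≤0.25%. Canonical-junction mRNA quantified in lysates by RT-qPCR, normalised to GAPDH, GUSB or PPIA and to DMSO (2^−ΔΔCt), then converted to % response.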

SMILES | IC50 (HiBiT-tagged HTT protein) | IC50 (HiBiT-tagged MYB protein) | IC50 (Target C mRNA; Homo sapiens) | IC50 (Target C mRNA)
Cn1cc2cc(-c3ccc4cc(N5CC[C@H](NCC6CC6)C5)cnc4n3)c(O)c(F)c2n1 [Compound 136, 5-{6-[(3S)-3-[(cyclopropylmethyl)amino]326pyrrolidine-1-yl]-1,8-naphthyridin-2-yl}-7-fluoro-2-methylindazol-6-ol] | 100 to 1000 nM | < 100 nM | 1000 to 10000 nM | 
CN[C@@H]1CN(c2cnc3nc(-c4cc5cn(C)nc5c(C)c4O)ccc3c2)C[C@H]1C [Compound 126, 2,7-dimethyl-5-{6-[(3R,4S)-3-methyl-4-(methylamino)382pyrrolidine-1-yl]-1,8-naphthyridin-2-yl}indazol-6-ol] | 100 to 1000 nM | 100 to 1000 nM | 1000 to 10000 nM | 
Cc1c(O)c(-c2cc(C3CC3)c3cc(N4CCNCC4)cnc3n2)cc2cn(C)nc12 [Compound 144, 5-(4-cyclopropyl-6-(piperazin-1-yl)-1,8-naphthyridin-2-yl)-2,7-dimethyl-2H-indazol-6-ol bis(2,2,2-trifluoroacetate)] | 100 to 1000 nM | < 100 nM | 1000 to 10000 nM | 
CN1CCC[C@@H]2CN(c3cnc4nc(-c5cc6cn(C)nc6c(F)c5O)cc(Cl)c4c3)C[C@@H]21 [Compound 303] | 100 to 1000 nM | 100 to 1000 nM | > 10000 nM | 
CCN[C@@H]1CCN(c2cnc3nc(-c4cc5cn(C)nc5cc4O)ccc3c2)C1 [Compound 310, 5-{6-[(3R)-3-(ethylamino)468pyrrolidine-1-yl]-1,8-naphthyridin-2-yl}-2-methylindazol-6-ol hydrochloride] | 100 to 1000 nM | < 100 nM | 100 to 1000 nM | 
Cn1cc2cc(-c3ccc4cc(N5CCC(NC(C)(C)C)C5)cnc4n3)c(O)cc2n1 (stereo not drawn) [Compound 134, 5-{6-[3-(tert-butylamino)pyrrolidin-1-yl]-1,8-naphthyridin-2-yl}-2-methylindazol-6-ol hydrochloride] | 100 to 1000 nM | 100 to 1000 nM | 100 to 1000 nM | 
C[C@@H]1CN(c2cnc3nc(-c4cc5cn(C)nc5c(F)c4O)cc(Cl)c3c2)C[C@H](C)N1 [Compound 279] | 100 to 1000 nM | < 100 nM | 1000 to 10000 nM | 
C[C@@H]1CN(c2cnc3nc(-c4cc(C#N)c5nn(C)cc5c4)cc(Cl)c3c2)C[C@H](C)N1 [Compound 325, 5-(4-chloro-6-((3R,5S)-3,5-dimethylpiperazin-1-yl)-1,8-naphthyridin-2-yl)-2-methyl-2H-indazole-7-carbonitrile 2,2,2-trifluoroacetate] | 1000 to 10000 nM | 100 to 1000 nM | > 10000 nM | 
Cc1c(O)c(-c2cc(Cl)c3cc(N4C[C@@H](C)N[C@@H](C)C4)cnc3n2)cc2cn(C)nc12 [Compound 149] | 100 to 1000 nM | < 100 nM |  | 1000 to 10000 nM
CN[C@@H]1CCN(c2cnc3nc(-c4cc5cn(C)nc5c(C)c4O)ccc3c2)C1 [Compound 112] | 100 to 1000 nM | < 100 nM | < 100 nM | 
Cc1cn2cc(-c3cc(Cl)c4cc(N5CCNCC5)cnc4n3)cc(F)c2n1 [Compound 153, 4-chloro-2-{8-fluoro-2-methylimidazo[1,2-a]pyridin-6-yl}-6-(piperazin-1-yl)-1,8-naphthyridine] | 100 to 1000 nM | 100 to 1000 nM | 1000 to 10000 nM | 

The next lines start with the values.

IC50 (HiBiT-tagged HTT protein) | IC50 (HiBiT-tagged MYB protein) | IC50 (Target C mRNA; Homo sapiens) | IC50 (Target C mRNA) | SMILES
100 to 1000 nM | 100 to 1000 nM | 100 to 1000 nM |  | CN[C@@H]1CN(c2cnc3nc(-c4cc5cn(C)nc5c(C)c4O)ccc3c2)C[C@H]1F (single isomer, unassigned) [Compound 130]
< 100 nM | < 100 nM | 100 to 1000 nM |  | CN[C@H]1CN(c2cnc3nc(-c4cc5cn(C)nc5c(C)c4O)ccc3c2)C[C@@H]1C [Compound 127, 2,7-dimethyl-5-{6-[(3S,4R)-3-methyl-4-(methylamino)384pyrrolidine-1-yl]-1,8-naphthyridin-2-yl}indazol-6-ol]
100 to 1000 nM | < 100 nM | 1000 to 10000 nM |  | Cc1cn2nc(-c3cc(Cl)c4cc(N5C[C@H](C)N[C@@H](C)C5)cnc4n3)cc(C)c2n1 [Compound 336]
< 100 nM | < 100 nM | 100 to 1000 nM |  | CN[C@H]1CN(c2cnc3nc(-c4cc5cn(C)nc5c(C)c4O)ccc3c2)C[C@H]1C [Compound 125, 2,7-dimethyl-5-{6-[(3R,4R)-3-methyl-4-(methylamino)379pyrrolidine-1-yl]-1,8-naphthyridin-2-yl}indazol-6-ol]
< 100 nM | < 100 nM | 100 to 1000 nM |  | CN[C@H]1CCN(c2cnc3nc(-c4cc5cn(C)nc5c(F)c4O)cc(Cl)c3c2)C1 [Compound 272]
< 100 nM | < 100 nM | 100 to 1000 nM |  | C[C@@H]1CN(c2cnc3nc(-c4cc5cn(C)nc5c(F)c4O)cc(Cl)c3c2)C[C@@H](C)N1 [Compound 281]
